Legend:
HS-PSS [1] = experiment: relative IC50 (inflection point of fitted dose-response curve, CellTox-Green cytotoxicity, 72 h; top asymptote may be below 50%); higher = less potent
How it was run: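 MPNST cell lines and primary human Schwann cells were grown for 72 h at 37 °C in 384-well plates containing five 10-fold compound dilutions. CellTox-Green, added before seeding at a final 1:1000 dilution, gave fluorescence from DNA released by disrupted cells, and signals were scaled to vehicle and positive-control wells. Curves were fitted with a four-parameter logistic model. Drug sensitivity score and relative IC50 come from these fits, with IC50 censored at the top concentration.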

YST-1 = experiment: relative IC50 (inflection point of fitted dose-response curve, CellTiter-Glo viability, 72 h; top asymptote may be below 50% inhibition); higher = less potent
How it was run: (§1)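 Viability of MPNST cell lines and primary human Schwann cells was read as CellTiter-Glo ATP luminescence after 72 h at 37 °C, 5% CO2, in 384-well plates seeded with 750–1000 cells per well. Each compound had been preprinted at five concentrations in 10-fold steps. Signals were scaled between vehicle and positive-control wells, duplicates averaged where present, and fitted with four-parameter logistic curves. Drug sensitivity score and relative IC50 (censored at the top concentration) come from those fits, and percent inhibition is taken at the top concentration.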

HS-Sch-2 = experiment: as above
How it was run: as §1

HS-PSS [2] = experiment: as above
How it was run: as §1

Structure (SMILES)	relative IC50 (HS-PSS [1]) [nM]	relative IC50 (YST-1) [nM]	relative IC50 (HS-Sch-2) [nM]	relative IC50 (HS-PSS [2]) [nM]
COc1ccc(CCc2nc3cc(-c4c(C)noc4C)ccc3n2C[C@H](C)N2CCOCC2)cc1Cl [SGC-CBP30]	> 25000	3970	3850	9710
CCn1c(-c2nonc2N)nc2c(C#CC(C)(C)O)ncc(OC[C@H]3CCCNC3)c21	> 10000	> 10000	1620	> 10000
CC(C)c1cc(C(=O)N2Cc3ccc(CN4CCN(C)CC4)cc3C2)c(O)cc1O [Onalespib]	62.7	105	37	114
Cc1nc(N)sc1-c1ccnc(Nc2ccc(N3CCOCC3)cc2)n1 [CYC-116]	> 10000	510	1580	1390
CNc1ncc2cc(-c3cc(NC(=O)NCCC(C)(C)C)c(F)cc3C)c(C)nc2n1	3590	561	235	3820
CCn1c(=O)c(-c2ccc(Cl)cc2Cl)cc2cnc(Nc3ccc(N4CCNCC4)c(F)c3)nc21 [FRAX486]	> 5000	> 5000	133	1750
CC(C)[C@H]1C(=O)N[C@@H](CCCNC(=N)N)C(=O)NCC(=O)N[C@@H](CC(=O)O)C(=O)N[C@H](Cc2ccccc2)C(=O)N1C [Cilengitide]	> 10000	> 10000	3250	> 10000
COc1ccc(-c2nc(N3CCOCC3)c3sc(CN(C)c4ncc(C(=O)NO)cn4)cc3n2)cn1 [CUDC-907]	66.7	3.12	24.3	20.7
C[C@@H](Oc1cc(-n2cnc3ccc(CN4CCN(C)CC4)cc32)sc1C(N)=O)c1ccccc1C(F)(F)F	3200	20.9	11.9	501
O=C(NOCCO)c1ccc2cncn2c1Nc1ccc(I)cc1F [GDC-0623]	> 2500	> 2500	368	300
O=C(O)C(=O)O.[NH-][C@@H]1CCCC[C@H]1[NH-].[Pt+2] [Oxaliplatin]	23200	1970	9670	7510
CS(=O)(=O)N1CCc2c(-c3cnc(N)nc3)nc(N3CCOCC3)nc21	> 10000	256	1050	687
CCc1c2c(nc3ccc(O)cc13)-c1cc3c(c(=O)n1C2)COC(=O)[C@]3(O)CC [SN-38]	29.7	4.63	9.22	36
C1=N/C2=N/c3ccc(OCCN4CCCC4)c(c3)COC/C=C/COCc3cccc(c3)C(=C1)N2 [Pacritinib]	2780	1940	1760	1180
C[C@@H]1CN(CC(=O)Nc2ccc3c(c2)Cc2cccc(-c4cc(=O)cc(N5CCOCC5)o4)c2S3)C[C@H](C)O1	> 25000	9260	4240	10100
CN(C)Cc1ccc(S(=O)(=O)n2ccc(/C=C/C(=O)NO)c2)cc1 [Resminostat]	3060	578	2170	2180
Cc1c(CN2CCN(C(=O)[C@H](C)O)CC2)sc2c(N3CCOCC3)nc(-c3cnc(N)nc3)nc12 [Apitolisib]	> 10000	167	732	715
CN(C)Cc1c(C(=O)NCCOc2ccc(C(=O)NO)cc2)oc2ccccc12 [Abexinostat]	1430	72.3	197	333
CCn1c(=O)c(-c2cc[nH]n2)cc2c(C)nc(N)nc21 [Voxtalisib]	> 10000	1120	2180	2330
CC(C)[C@H](C(=O)Nc1ccc(C(=O)NO)cc1)c1ccccc1 [AR-42]	1920	270	1150	1060

Structure (SMILES)	relative IC50 (HS-PSS [1]) [nM]	relative IC50 (YST-1) [nM]	relative IC50 (HS-Sch-2) [nM]	relative IC50 (HS-PSS [2]) [nM]
O=c1cc(N2CCOCC2)oc2c(-c3ccccc3)cccc12	18300	7660	13700	13400
C/C=C1\NC(=O)[C@H]2CSSCC/C=C/[C@H](CC(=O)N[C@H](C(C)C)C(=O)N2)OC(=O)[C@H](C(C)C)NC1=O [Romidepsin]	337	0.75	2	300
N#Cc1ccc2[nH]c(O)c(-c3ccc(CN4CCOCC4)cn3)c2c1 [AZD-1080]	> 10000	> 10000	3630	2380
COc1cc(C(=O)O)ccc1NC(=O)[C@@H]1N[C@@H](CC(C)(C)C)[C@](C#N)(c2ccc(Cl)cc2F)[C@H]1c1cccc(Cl)c1F [Idasanutlin]	> 10000	62	> 10000	178
COc1cc(Br)c(Nc2nc(-c3c(C)nc4ncccn34)cs2)c(Br)c1 [PTC-209]	> 10000	2580	1410	1670
Cc1cc(-c2ncc(CC(=O)Nc3ccc(-c4cnccn4)cn3)cc2C)ccn1 [NVP-LGK974]	> 10000	> 10000	2920	1970
COc1ncc(-c2ccc3nccc(-c4ccnnc4)c3c2)cc1NS(=O)(=O)c1ccc(F)cc1F [Omipalisib]	> 1000	6.88	98.4	35.2
CCCOc1ccn2c(C(C)=O)cc(-c3ccccc3S(C)(=O)=O)c2c1 [GSK2801]	> 10000	> 10000	> 10000	> 10000
C[C@@H](Nc1cc(F)cc(F)c1)c1cc(C(=O)N(C)C)cc2c(=O)cc(N3CCOCC3)oc12 [AZD-8186]	> 1000	357	> 1000	> 1000
O=C(O)c1ccc2c(c1)nc(Nc1cccc(Cl)c1)c1ccncc12 [Silmitasertib]	> 10000	2360	3540	2580
NC[C@@](O)(c1ccc(Cl)cc1)c1ccc(-c2cn[nH]c2)cc1	2780	2970	1510	2030
Cc1nn(C)c(COc2ccc(N3CCN(S(=O)(=O)N(C)C)CC3)cc2)c1-c1cccc2c(CCCOc3cccc4ccccc34)c(C(=O)O)n(CCN3CCOCC3)c12	14900	12700	15400	17800
COc1c(OCCCN2CCOCC2)ccc2c1N=C(NC(=O)c1cnc(N)nc1)N1CCN=C21 [Copanlisib]	> 1000	22.1	113	405
COc1cc(N2CCN(C)CC2)ccc1Nc1nccc(-c2cn(C)c3cnccc23)n1 [AZ191]	2460	3400	3350	2610
CN(CC(=O)N(Cc1ccc(C2CCCCC2)cc1)c1ccc(C(=O)O)cc1)S(=O)(=O)c1c(F)c(F)c(F)c(F)c1F [SH-4-54]	7280	3260	5270	7510
Cc1cc(OCc2nnc(SC3CCCC3)n2-c2cccnc2)ccc1-c1ccc(S(C)(=O)=O)cc1 [NMS-873]	2950	1490	193	101
Nc1ncnc2c1c(-c1cccc(OCc3ccccc3)c1)cn2[C@H]1C[C@@H](CN2CCC2)C1 [NVP-AEW541]	2380	654	1960	3020
O=C(/C=C\n1cnc(-c2cc(C(F)(F)F)cc(C(F)(F)F)c2)n1)NNc1cnccn1 [Selinexor]	1460	115	211	404
CN(C)C1CCN(C(=O)c2ccc(NC(=O)Nc3ccc(-c4nc(N5CCOCC5)nc(N5CCOCC5)n4)cc3)cc2)CC1 [Gedatolisib]	> 1000	16.4	47.2	9.08
CC(C)N(C[C@H]1O[C@@H](n2cnc3c(N)ncnc32)[C@H](O)[C@@H]1O)[C@H]1C[C@@H](CCc2nc3cc(C(C)(C)C)ccc3[nH]2)C1 [Pinometostat]	> 1000	> 1000	> 1000	> 1000

Structure (SMILES)	relative IC50 (HS-PSS [1]) [nM]	relative IC50 (YST-1) [nM]	relative IC50 (HS-Sch-2) [nM]	relative IC50 (HS-PSS [2]) [nM]
COc1ccc(C[C@H](NC(=O)[C@H](C)NC(=O)CN2CCOCC2)C(=O)N[C@@H](Cc2ccccc2)C(=O)[C@@]2(C)CO2)cc1 [ONX-0914]	307	309	158	335
CCN(CC)CCCC(C)Nc1ccnc2cc(Cl)ccc12 (configuration not stated) [Chloroquine]	8350	14700	3750	2730
Cc1cc(C)c(CNC(=O)c2cc(-c3ccc(CN4CCOCC4)cc3)cc3c2cnn3C2CCCC2)c(=O)[nH]1 [EPZ-5687]	> 10000	> 10000	> 10000	> 10000
N.N.[Cl][Pt][Cl] [Cisplatin]	2270	5180	1170	4700
CCn1cc(-c2ccnc3[nH]c(-c4cccc(CN(C)C)c4)cc23)c(-c2ccc(NC(=O)N(C)C)cc2)n1	> 1000	3.97	157	142
COC[C@H](NC(=O)c1cnc(C)s1)C(=O)N[C@@H](COC)C(=O)N[C@@H](Cc1ccccc1)C(=O)[C@@]1(C)CO1 [Oprozomib]	486	72.1	16.7	148
CCCCCCCCCCCCCCCCCCOP(=O)([O-])OC1CC[N+](C)(C)CC1 [Perifosine]	> 2500	> 2500	> 2500	> 2500
Cn1nccc1Nc1nccc(-c2ccn([C@H](CO)c3ccc(Cl)c(F)c3)c(=O)c2)n1 [GDC-0994]	> 10000	4280	2760	> 10000
CNC(=O)c1ccc2cc([C@@]3(O)CCn4cncc43)ccc2c1 [Orteronel]	> 10000	> 10000	> 10000	> 10000
COc1cc(N2CCC(N3CCN(C)CC3)CC2)ccc1Nc1ncnc(Nc2ccccc2S(=O)(=O)C(C)C)n1 [ASP3026]	> 10000	> 10000	> 10000	> 10000
CCN(CC)CCCC(C)Nc1c2ccc(Cl)cc2nc2ccc(OC)cc12 (configuration not stated) [Mepacrine]	1580	1790	1440	1440
FC(F)(F)c1ccc(/C=C/c2nc(COc3ccc(CCCCn4ccnn4)cc3)co2)cc1 [Mubritinib]	> 1000	6.05	19.7	10.9
CC(C)Nc1cc(-c2c[nH]c(C(=O)N[C@H](CO)c3cccc(Cl)c3)c2)c(Cl)cn1 [Ulixertinib]	> 10000	1380	1290	3530
c1ccc(Cn2c(-c3ccc(OC[C@H](C4CCNCC4)n4c(-c5ccccc5)nc5ccccc54)cc3)nc3ccccc32)cc1 [deltarasin]	2470	3360	3060	2470
CN1CCN(c2cc(C(=O)Nc3ccc4c(c3)-c3c(c(C(N)=O)nn3-c3ccc(F)cc3)CC4)c(Cl)cn2)CC1 [PHA 408]	3260	3080	3280	2400
COc1cccc2c1C(=O)c1c(O)c3c(c(O)c1C2=O)C[C@@](O)(/C(CO)=N/NC(=O)CCCCCN1C(=O)C=CC1=O)C[C@@H]3O[C@H]1C[C@H](N)[C@H](O)[C@H](C)O1 [Aldoxorubicin]	181	51.5	105	158
C=CC(=O)Nc1cccc(Nc2nc(Nc3ccc(N4CCN(C(C)=O)CC4)cc3OC)ncc2C(F)(F)F)c1 [Rociletinib]	2980	1610	2820	3100
CCNC(=O)C[C@@H]1N=C(c2ccc(Cl)cc2)c2cc(OC)ccc2-n2c(C)nnc21	> 10000	501	624	709
